Assay results taken from patent US9345710B2, “Inhibitors of phosphatidic acid phosphohydrolase (PAP) enzymes for the treatment of cancers that depend on members of the ErbB/HER tyrosine kinase receptor family” (PONTIFICA UNIVERSIDAD CATOLICA DE CHILE, priority 2011, dated 2016).
Values joined by “and” are separate entries in the source; they are usually repeats but may differ in a detail not shown here. Equal entries are not always repeated.

What was measured:
EGFR at the cell surface [1] = assay: 125I-EGF radioligand binding assay on HeLa cells (EGFR at the cell surface); assay type: cell-based, human; conditions: for decrease of EGFR at the cell surface (125I-EGF binding): 30 min, HeLa
Method: (§1) HeLa cells used for the radioligand binding assays and immunofluorescence to study EGFR endocytosis have been characterized previously in our laboratory (64, 122, 152). The cells were grown to approximately 80% confluence and maintained without serum for 4 h before testing. U87 human […] cells from the ATCC were grown and transfected with pcDNA3.1-EGFRvIII-myc using the lipofectamine method following the manufacturer's instructions (Invitrogen). 100,000 U87 cells were seeded in 15 mm plated and after 48 hours of seeding cells were transfected with 1 μg of plasmid pcDNA3-EGFRvIII-myc. After 48 hours post-transfection the selection medium (DMEM, 10% Fetal Bovine Serum (FBS) supplemented with antibiotics (100 IU/ml penicillin, […] streptomycin) and 0.8 mg/ml Geneticin was added (G418, Sigma). After 2 weeks in selection media, permanently transfected cells were obtained (U87-EGFRvIII).
The radioligand ^125I-human EGF was prepared by the chloramine T method as described (122, 152, 160) yielding specific activities of 50000-70000 cpm/ng. Binding assays were performed in Hanks solution with 20 mM HEPES and 0.2% bovine serum albumin (BSA) for 1 h at 4° C., as described (122). HeLa cells deprived of serum for 4 h were treated for 30 min with the indicated doses of various drugs and then incubated with 20 ng/ml ^125I-EGF at 4° C. in binding medium (MEM-Hank's, 25 mM HEPES, 0.2% BSA RIA grade), stirring for 1 h. The cells were lysed with 1 N NaOH for 2 h at room temperature and the counts per minute of each sample in triplicate was determined in a gamma counter, including a nonspecific binding point obtained by incubation with an excess (500 fold) of cold ligand, whose value was subtracted from each sample. The radioligand binding in saturating condition provides an estimate of the amount of EGFR on the cell surface.

U87 cells = assay: Proliferation/viability of cultured tumor cells, U87; assay type: cell-based, human; conditions: 10 μM D-Prop, 1 μM Des, alone or combined, 4 days
Method: as §1
(§2) Cells were seeded at a density of 10.000 cells per well in 24-well plates in triplicate and cultured in DMEM supplemented with 10% FBS and antibiotics (penicillin 100 U/ml and streptomycin 100 mg/ml). The medium with the drugs was changed each 24 hours. […] Viable cells were counted after 4 days of treatment in an automatic cell counter (Countess, Invitrogen) after incubation with vital tripan blue dye and are represented as % of live cells respect to untreated controls.

U87-EGFRvIII cells = assay: Proliferation/viability of cultured tumor cells, U87-EGFRvIII; assay type: cell-based, human; conditions: 10 μM D-Prop, 1 μM Des, alone or combined, 4 days
Method: as §1, §2

GBM1 cells = assay: Proliferation/viability of primary glioblastoma cells GBM1; assay type: cell-based, human; conditions: 10 μM D-Prop, 1 μM Des, alone or combined, 4 days
Method: (§3) Cells were seeded at a density of 10.000 cells per well in 24-well plates in triplicate and cultured in DMEM supplemented with 10% FBS and antibiotics (penicillin 100 U/ml and streptomycin 100 mg/ml). The medium with the drugs was changed each 24 hours. The respective controls received only culture medium. Viable cells were counted after 4 days of treatment in an automatic cell counter (Countess, Invitrogen) after incubation with vital tripan blue dye and are represented as % of live cells respect to untreated controls.

UCI 101 cells = assay: Proliferation/viability, ovarian cancer cells UCI 101; assay type: cell-based, human; conditions: 10 or 30 μM D-Prop, 1 μM Des, alone or combined, 4 days
Method: (§4) Viable cells counted in an automatic cell counter after incubation with vital tripan blue dye are represented as % of live cells respect to untreated controls.
as §3

B16F10 cells = assay: Proliferation/viability, melanoma cells B16F10; assay type: cell-based, mice; conditions: 10 or 30 μM D-Prop, 1 μM Des, alone or combined, 4 days
Method: as §4, §3

H1975 cells = assay: Proliferation/viability, NSCLC cells H1975 (EGFR L858R/T790M); assay type: cell-based, human; conditions: 10 or 30 μM D-Prop, 1 μM Des, alone or combined, 4 days
Method: as §4, §3

MDCK cells = assay: Proliferation/viability, non-tumoral MDCK cells (selectivity control); assay type: cell-based, canine; conditions: 10 or 30 μM D-Prop, 1 μM Des, alone or combined, 4 days
Method: as §4, §3

[2] = cited from earlier work
EGFR = assay: Indirect immunofluorescence of EGFR distribution in HeLa cells; parameters: EGFR endocytosis (immunofluorescent pattern): dose or concentration left out as unconfirmed; conditions: for EGFR staining pattern by indirect immunofluorescence: 30 min, 100 μM D- or L-propranolol, 20 μM desipramine; for EGFR endocytosis (immunofluorescent pattern): […] μM propranolol, […] μM desipramine
Method: HeLa cells grown on glass coverslips were washed three times with cold phosphate buffer saline (PBS) and incubated 2 h in serum free DMEM-HEPES media at 37° C., in order to accumulate EGFR on the cell surface. Then the cells were washed with PBS and fixed for 30 min at room temperature with 4% paraformaldehyde in PBS supplemented with 0.1 mM CaCl2 and 1 mM MgCl 2 (PBS-CM). After washing three times with PBS plus 0.2% gelatin (300 Bloom, Sigma Aldrich, PBS-CM-G), 5 minutes each time, cells were permeabilized with 0.2% Triton X-100 for 10 minutes at room temperature and incubated for 12 h at 4° C. with anti-EGFR monoclonal antibody (mAb) HB8506. After at least 6 washes in PBS-CM-G cells were incubated with secondary antibody anti-mouse IgG coupled to Alexa488 (dilution 1/1000) for 30 min at 37° C.

EGFR at the cell surface [3] = conditions: highest dose 300 μM, 30 min; cited from earlier work

| SMILES | EC50 (EGFR at the cell surface [1]; HeLa cells, serum deprived 4 h, drug 30 min, read-out: EC50 for decrease in 125I-EGF binding (EGFR at the cell surface)) | proliferation of U87 cells (U87 cells) | proliferation of U87-EGFRvIII cells (U87-EGFRvIII cells) | proliferation of GBM1 cells (GBM1 cells) | viable cells (% of live cells respect to untreated controls), UCI 101 (UCI 101 cells) | viable cells (% of live cells respect to untreated controls), B16F10 (B16F10 cells) | viable cells (% of live cells respect to untreated controls), H1975 (H1975 cells) | viable cells (% of live cells respect to untreated controls), MDCK (MDCK cells) | reported effective blood concentration ([2]; human, in vivo) [µM] | EGFR staining pattern by indirect immunofluorescence (EGFR) | EGFR endocytosis (immunofluorescent pattern) (EGFR) | decrease of EGFR at the cell surface (125I-EGF binding) (EGFR at the cell surface [1]; 250 μM) [%] | decrease of EGFR at the cell surface (125I-EGF binding) (EGFR at the cell surface [1]; […] μM) | half-time of concentration in circulation ([2]; human, in vivo) [h] | decrease of the levels of EGFR at the cell surface (125I-EGF binding) (EGFR at the cell surface [3]) [%] | concentration in the blood of patients ([2]; patients treated for arrhythmia, 12 h after the last dose (ref. 14)) [µM] |
| --- | --- | --- | --- | --- | --- | --- | --- | --- | --- | --- | --- | --- | --- | --- | --- | --- |
| CNCCCN1c2ccccc2CCc2ccccc21 [desipramine] | 20 to 25 µM and ~20 µM | not sensitive | decrease their proliferation | decrease their proliferation | sensitive | sensitive | sensitive | not affected | 1 | the pattern changed to an intracellular location, mainly at the perinuclear region | induce endocytosis of the EGFR |  |  |  |  |  |
| CC(C)NC[C@H](O)COc1cccc2ccccc12 [L-propranolol] |  |  |  |  |  |  |  |  |  | the pattern changed to an intracellular location, mainly at the perinuclear region |  | ~80 | about 50% |  |  |  |
| CC(C)NCC(O)COc1cccc2ccccc12 (racemic) [propranolol] |  |  |  |  |  |  |  |  |  |  | induce endocytosis of the EGFR |  |  | 4 to 6 | 80 |  |
| CC(C)NC[C@@H](O)COc1cccc2ccccc12 [D-propranolol] |  | not sensitive | decrease their proliferation | decrease their proliferation | sensitive | sensitive | sensitive | not affected |  | the pattern changed to an intracellular location, mainly at the perinuclear region |  | ~80 | about 50% |  |  | ~10 |
